What was measured:
[1] = target: T1, IDO1 (Homo sapiens, UniProt P14902); experiment: IDO enzymatic assay; type: biochemical; details: geometric mean; read-out: IDO1 GMean: IC50 (μM) (Biochemical Assay)
T1 construct: His tag (N); made in house; host or cells: E. coli
Procedure: (§1) Human IDO or TDO with N-terminal His tag is purified in E. coli. The IDO enzymatic assay is performed using 6 nM IDO and 10 μM L-Trp in the presence of 10 mM ascorbic acid, 5 μM methylene blue, 100 nM catalase and 0.01% Tween 20 in 50 mM sodium phosphate buffer (pH 6.5). 19 μL of above reaction mixture is added to wells of 384 well reaction plate containing 1 μL of various concentrations of test compound or DMSO vehicle and incubated for 20 minutes at room temperature. The TDO enzymatic reaction assay is performed using 1 nM TDO and 350 μM L-Trp in the presence of 10 mM ascorbic acid, 0.4 μM methylene blue, 100 nM catalase and 0.01% Tween 20 in 50 mM sodium phosphate buffer (pH 6.5). 19 μL of above reaction mixture is added to wells of 384 well reaction plate containing 1 μL of various concentrations of test compound or DMSO vehicle and incubated for 70 minutes at room temperature. 16 wells containing all the components of reaction mixture and 5% DMSO serve as high control. 16 well containing all the components except enzyme of reaction mixture and 5% DMSO serves as low control. Both IDO and TDO enzymatic reactions are stopped by addition of 4 μL of 30% TCA and incubated 30 minutes at 50° C. to hydrolyze N-formylkynurenine produced by IDO or TDO to kynurenine. Upon measuring the kynurenine level, the percentage inhibition is calculated at individual concentrations relative to high and low controls. The data is analyzed by using nonlinear regression to generate IC50 values.

[2] = target: T2, TDO (Homo sapiens, UniProt P48775); experiment: TDO enzymatic assay; details: geometric mean; read-out: TDO GMean: IC50 (μM) (Biochemical Assay)
T2 construct: His tag (N); made in house; host or cells: E. coli
Procedure: as §1

[3] = target: T3, IDO1-expressing HEK293 cell clones (Homo sapiens, UniProt P14902); experiment: Cell based kynurenine assay, IDO1-expressing HEK293 cell clones; details: HEK293 cells, 24 hours of incubation, geometric mean; read-out: HEK293 IDO1 Kynurenine GMean IC50 (μM) (Cellular Assay)
T3 construct: expressed in transfected cells; host or cells: HEK293
Procedure: (§2) IDO1-expressing or TDO-expressing HEK293 cell clones are generated upon stable transfection of plasmids expressing human IDO or human TDO under the control of CMV promoter. Cells are selected in DMEM media supplemented with 10% fetal bovine serum and 1 mg/ml G418 at 37° C. in a humidified incubator supplied with 5% CO2. The assays are performed as follows.
(§3) Cells were seeded in a 96 well plate in 50 μL of culture media at a density of 2.5×10^4 per well. Serial dilutions of compounds (in total volume of 50 μL culture media) are added into cells. 4 wells containing 0.2% DMSO treated cells serve as high controls and 4 wells containing media only with 0.2% DMSO serve as low controls. After 24 hours of incubation, the supernatant was transferred to a 384 well reaction plate and the kynurenine level determined. The percentage inhibition at individual concentrations relative to high and low controls is calculated. The data is analyzed by using nonlinear regression to generate IC50 values.

[4] = target: T4, TDO-expressing HEK293 cell clones (Homo sapiens, UniProt P48775); experiment: Cell based kynurenine assay, TDO-expressing HEK293 cell clones; details: HEK293 cells, 24 hours of incubation, geometric mean; read-out: HEK293 TDO Kynurenine GMean IC50 (μM) (Cellular Assay)
T4 construct: expressed in transfected cells; host or cells: HEK293
Procedure: as §2, §3

T4 sequence (P48775 whole entry): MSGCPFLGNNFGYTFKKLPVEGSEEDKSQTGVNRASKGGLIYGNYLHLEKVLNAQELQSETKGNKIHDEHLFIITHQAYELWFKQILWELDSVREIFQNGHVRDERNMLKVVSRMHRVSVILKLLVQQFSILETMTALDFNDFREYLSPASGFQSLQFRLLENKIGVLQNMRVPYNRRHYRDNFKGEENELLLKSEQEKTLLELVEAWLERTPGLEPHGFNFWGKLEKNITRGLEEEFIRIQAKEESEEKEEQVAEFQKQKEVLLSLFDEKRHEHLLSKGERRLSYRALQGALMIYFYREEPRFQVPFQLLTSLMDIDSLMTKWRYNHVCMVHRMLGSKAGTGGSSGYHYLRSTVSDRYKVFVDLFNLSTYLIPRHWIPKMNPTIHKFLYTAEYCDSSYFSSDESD
T2 sequence (P48775 whole entry): as above
T1 sequence (P14902 whole entry): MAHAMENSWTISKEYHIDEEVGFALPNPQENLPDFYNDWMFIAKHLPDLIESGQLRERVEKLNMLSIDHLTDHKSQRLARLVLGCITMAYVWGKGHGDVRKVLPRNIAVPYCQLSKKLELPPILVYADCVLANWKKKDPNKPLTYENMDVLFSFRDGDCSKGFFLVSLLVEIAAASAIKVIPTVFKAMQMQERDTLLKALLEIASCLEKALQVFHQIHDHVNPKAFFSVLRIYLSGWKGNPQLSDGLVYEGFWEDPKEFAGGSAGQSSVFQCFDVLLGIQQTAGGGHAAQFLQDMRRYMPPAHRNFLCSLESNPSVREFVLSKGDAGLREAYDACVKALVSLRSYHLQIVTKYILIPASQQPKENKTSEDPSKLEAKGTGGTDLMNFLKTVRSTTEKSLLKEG
T3 sequence (P14902 whole entry): as above

Structure (SMILES) | IC50 [1] [µM] | IC50 [2] [µM] | IC50 [3] [µM] | IC50 [4] [µM]
CC(C)(N)C(=O)N1CCC(C(C)(C)[C@H](O)c2cc(Cl)cc3cn[nH]c23)CC1 [Compound P-0067, (S)-2-amino-1-(4-(1-(5-chloro-1H-indazol-7-yl)-1-hydroxy-2-methylpropan-2-yl)piperidin-1-yl)-2-methylpropan-1-one] | 0.0001 to 10 | 0.0001 to 10 | 0.0001 to 10 | 0.0001 to 10
CC(C)(C1CCN(C(=O)NC2CCC(F)(F)CC2)CC1)C(O)c1cc(Cl)cc2[nH]ncc12 (stereo not drawn) [Compound P-0112, 4-(1-(6-chloro-1H-indazol-4-yl)-1-hydroxy-2-methylpropan-2-yl)-N-(4,4-difluorocyclohexyl)piperidine-1-carboxamide] | 0.0001 to 10 | 0.0001 to 10 | 0.0001 to 10 | 0.0001 to 10
CCS(=O)(=O)N1CCC(C(C)(C)[C@@H](O)c2cc(Cl)cc3[nH]ncc23)CC1 [Compound P-0148, (R)-1-(6-chloro-1H-indazol-4-yl)-2-(1-(ethylsulfonyl)piperidin-4-yl)-2-methylpropan-1-ol] | 0.0001 to 10 | 0.0001 to 10 | > 10 | 0.0001 to 10
CC(C)(C1CCN(C(=O)c2cccnc2)CC1)C(O)c1cc(Cl)cc2[nH]ncc12 (stereo not drawn) [Compound P-0044, (4-(1-(6-chloro-1H-indazol-4-yl)-1-hydroxy-2-methylpropan-2-yl)piperidin-1-yl)(pyridin-3-yl)methanone] | 0.0001 to 10 | 0.0001 to 10 | 0.0001 to 10 | 0.0001 to 10
CCCS(=O)(=O)N1CCC(C(C)(C)C(O)c2cc(Cl)cc3[nH]ncc23)CC1 (stereo not drawn) [Compound P-0071] | 0.0001 to 10 | 0.0001 to 10 | 0.0001 to 10 | 0.0001 to 10
CC1(CNC(=O)N2CCC(C(C)(C)[C@H](O)c3cc(Cl)cc4cn[nH]c34)CC2)COC1 [Compound P-0031, (S)-4-(1-(5-chloro-1H-indazol-7-yl)-1-hydroxy-2-methylpropan-2-yl)-N-((3-methyloxetan-3-yl)methyl)piperidine-1-carboxamide] | 0.0001 to 10 | 0.0001 to 10 | 0.0001 to 10 | > 10
CCN(CC)CC(=O)N1CCC(C(C)(C)[C@H](O)c2cc(Cl)cc3cn[nH]c23)CC1 [Compound P-0058, (S)-1-(4-(1-(5-chloro-1H-indazol-7-yl)-1-hydroxy-2-methylpropan-2-yl)piperidin-1-yl)-2-(diethylamino)ethan-1-one] | 0.0001 to 10 | 0.0001 to 10 | 0.0001 to 10 | 0.0001 to 10
CC(C)(C1CCN(C(=O)NCCN2CCOCC2)CC1)[C@H](O)c1cc(Cl)cc2cn[nH]c12 [Compound P-0020, (S)-4-(1-(5-chloro-1H-indazol-7-yl)-1-hydroxy-2-methylpropan-2-yl)-N-(2-morpholinoethyl)piperidine-1-carboxamide] | 0.0001 to 10 | 0.0001 to 10 | 0.0001 to 10 | 0.0001 to 10
CS(=O)(=O)CCNC(=O)N1CCC(C(F)(F)C(=O)c2c(F)c(Cl)cc3cn[nH]c23)CC1 [Compound P-0038, 4-(2-(5-chloro-6-fluoro-1H-indazol-7-yl)-1,1-difluoro-2-oxoethyl)-N-(2-(methylsulfonyl)ethyl)piperidine-1-carboxamide] | 0.0001 to 10 | 0.0001 to 10 | 0.0001 to 10 | > 10
CCONC(=O)N1CCC(C(C)(C)[C@H](O)c2cc(Cl)cc3cn[nH]c23)CC1 [Compound P-0121, (S)-4-(1-(5-chloro-1H-indazol-7-yl)-1-hydroxy-2-methylpropan-2-yl)-N-ethoxypiperidine-1-carboxamide] | 0.0001 to 10 | 0.0001 to 10 | 0.0001 to 10 | 0.0001 to 10
COCCCNC(=O)N1CCC(C(F)(F)C(=O)c2c(F)c(Cl)cc3cn[nH]c23)CC1 [Compound P-0037, 4-(2-(5-chloro-6-fluoro-1H-indazol-7-yl)-1,1-difluoro-2-oxoethyl)-N-(3-methoxypropyl)piperidine-1-carboxamide] | 0.0001 to 10 | 0.0001 to 10 | 0.0001 to 10 | 0.0001 to 10
CC(C)ONC(=O)N1CCC(C(C)(C)[C@H](O)c2cc(Cl)cc3cn[nH]c23)CC1 [Compound P-0064, (S)-4-(1-(5-chloro-1H-indazol-7-yl)-1-hydroxy-2-methylpropan-2-yl)-N-isopropoxypiperidine-1-carboxamide] | 0.0001 to 10 | 0.0001 to 10 | 0.0001 to 10 | 0.0001 to 10
CC(C)(C1CCN(C(=O)Nc2ccc(Cl)nc2)CC1)[C@H](O)c1cc(Cl)cc2cn[nH]c12 [Compound P-0032, (S)-4-(1-(5-chloro-1H-indazol-7-yl)-1-hydroxy-2-methylpropan-2-yl)-N-(6-chloropyridin-3-yl)piperidine-1-carboxamide] | 0.0001 to 10 | 0.0001 to 10 | 0.0001 to 10 | > 10

Now from value to molecule:

IC50 [1] [µM] | IC50 [2] [µM] | IC50 [3] [µM] | IC50 [4] [µM] | Structure (SMILES)
0.0001 to 10 | 0.0001 to 10 | 0.0001 to 10 | 0.0001 to 10 | CC(C)(C1CCN(C(=O)NC2CC(F)(F)C2)CC1)C(O)c1cc(Cl)cc2[nH]ncc12 (stereo not drawn) [Compound P-0094, 4-(1-(6-chloro-1H-indazol-4-yl)-1-hydroxy-2-methylpropan-2-yl)-N-(3,3-difluorocyclobutyl)piperidine-1-carboxamide]
0.0001 to 10 | 0.0001 to 10 | > 10 | 0.0001 to 10 | CC(C)(C)OC(=O)N1CCC(C(C)(C)[C@H](O)c2cc(Cl)cc3[nH]ncc23)CC1 [Compound P-0142, tert-butyl (S)-4-(1-(6-chloro-1H-indazol-4-yl)-1-hydroxy-2-methylpropan-2-yl)piperidine-1-carboxylate]
0.0001 to 10 | 0.0001 to 10 | 0.0001 to 10 | 0.0001 to 10 | CCNC(=O)N1CCC(C(C)(C)C(O)c2cc(Cl)cc3[nH]ncc23)CC1 (stereo not drawn) [Compound P-0076, 4-(1-(6-chloro-1H-indazol-4-yl)-1-hydroxy-2-methylpropan-2-yl)-N-ethylpiperidine-1-carboxamide]
0.0001 to 10 | 0.0001 to 10 | 0.0001 to 10 | 0.0001 to 10 | COCCNC(=O)N1CCC(C(C)(C)C(O)c2cc(Cl)cc3[nH]ncc23)CC1 (stereo not drawn) [Compound P-0083, 4-(1-(6-chloro-1H-indazol-4-yl)-1-hydroxy-2-methylpropan-2-yl)-N-(2-methoxyethyl)piperidine-1-carboxamide]
0.0001 to 10 | 0.0001 to 10 | > 10 | 0.0001 to 10 | CC(C)(C1CCN(C(=O)NCC#N)CC1)C(O)c1cc(Cl)cc2[nH]ncc12 (stereo not drawn) [Compound P-0087, 4-(1-(6-chloro-1H-indazol-4-yl)-1-hydroxy-2-methylpropan-2-yl)-N-(cyanomethyl)piperidine-1-carboxamide]
0.0001 to 10 | 0.0001 to 10 | 0.0001 to 10 | 0.0001 to 10 | CC(C)(C1CCN(C(=O)NCCC#N)CC1)[C@H](O)c1cc(Cl)cc2cn[nH]c12 [Compound P-0030, (S)-4-(1-(5-chloro-1H-indazol-7-yl)-1-hydroxy-2-methylpropan-2-yl)-N-(2-cyanoethyl)piperidine-1-carboxamide]
0.0001 to 10 | 0.0001 to 10 | 0.0001 to 10 | 0.0001 to 10 | CC(C)(C1CCN(C(=O)C2CCC2)CC1)C(O)c1cc(Cl)cc2[nH]ncc12 (stereo not drawn) [Compound P-0052, (4-(1-(6-chloro-1H-indazol-4-yl)-1-hydroxy-2-methylpropan-2-yl)piperidin-1-yl)(cyclobutyl)methanone]
0.0001 to 10 | 0.0001 to 10 | > 10 | 0.0001 to 10 | CCS(=O)(=O)N1CCC(C(C)(C)C(O)c2cc(Cl)cc3[nH]ncc23)CC1 (stereo not drawn) [Compound P-0072, 1-(6-chloro-1H-indazol-4-yl)-2-(1-(ethylsulfonyl)piperidin-4-yl)-2-methylpropan-1-ol]
